Experimental data: publication PMC10762035, “Molecular basis of human trace amine-associated receptor 1 activation” (Nature Communications, 2024)
Where a chain is given by its changes, count along the chain named. Several values for one entry are separate records, joined by “and”; a condition that tells them apart may be missing. Identical values can stand only once. Like-named read-outs stand apart in the source and are kept apart here.

Columns and labels:
hTA1 b2N = biological target: T1, hTA1 b2N (Homo sapiens, UniProt Q96RJ0); experiment: GloSensor cAMP accumulation assay, b2N construct; type: cell-based; details: b2N, n=2
T1 construct: read by me as the first 25 residues of β2AR (N); expressed in transfected cells; host or cells: HEK293T

hTA1 C178S = biological target: T2, hTA1 C178S (Homo sapiens, UniProt Q96RJ0, C178S); experiment: GloSensor cAMP accumulation assay, C178S mutant; type: cell-based; details: for Normalized Luminescence Counts: C178S (N=2), log[Agonist]
T2 construct: expressed in transfected cells; host or cells: HEK293T
T2 sequence (Q96RJ0 1-339 C178S): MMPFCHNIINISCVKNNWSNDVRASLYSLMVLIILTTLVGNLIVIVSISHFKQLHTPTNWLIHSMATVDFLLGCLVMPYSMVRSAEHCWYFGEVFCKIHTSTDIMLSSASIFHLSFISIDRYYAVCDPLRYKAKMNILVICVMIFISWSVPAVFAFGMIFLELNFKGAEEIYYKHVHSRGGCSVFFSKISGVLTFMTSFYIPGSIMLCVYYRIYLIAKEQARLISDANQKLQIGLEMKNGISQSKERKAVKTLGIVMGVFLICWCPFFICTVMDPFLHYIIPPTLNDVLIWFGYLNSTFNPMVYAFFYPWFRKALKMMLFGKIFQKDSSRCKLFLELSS

hTA1 C88/178S = biological target: T3, hTA1 C88/178S (Homo sapiens, UniProt Q96RJ0, C178S/C88S); experiment: GloSensor cAMP accumulation assay, C88S/C178S double mutant; type: cell-based
T3 construct: expressed in transfected cells; host or cells: HEK293T
T3 sequence (Q96RJ0 1-339 C88S/C178S): T2 sequence (Q96RJ0 1-339 C178S) with C88S

hTA1 W264F = biological target: T4, hTA1 W264F (Homo sapiens, UniProt Q96RJ0, W264F); experiment: GloSensor cAMP accumulation assay, W264F mutant; type: cell-based; details: W264F;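 further: cells transiently transfected with receptor plus GloSensor, luminescence read 30 min after agonist addition at room temperature, concentration-response curves fitted by log(agonist) vs response regression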
T4 construct: expressed in transfected cells; host or cells: HEK293T
T4 sequence (Q96RJ0 1-339 W264F): T2 sequence (Q96RJ0 1-339 C178S) with S178C, W264F

hTA1 T194A = biological target: T5, hTA1 T194A (Homo sapiens, UniProt Q96RJ0, T194A); experiment: GloSensor cAMP accumulation assay, T194A mutant
T5 sequence (Q96RJ0 1-339 T194A): T2 sequence (Q96RJ0 1-339 C178S) with S178C, T194A

[1] = read-out: Span ± SEM (Emax normalized to β-PEA)

T1 sequence (Q96RJ0 with tags, fused parts or gaps): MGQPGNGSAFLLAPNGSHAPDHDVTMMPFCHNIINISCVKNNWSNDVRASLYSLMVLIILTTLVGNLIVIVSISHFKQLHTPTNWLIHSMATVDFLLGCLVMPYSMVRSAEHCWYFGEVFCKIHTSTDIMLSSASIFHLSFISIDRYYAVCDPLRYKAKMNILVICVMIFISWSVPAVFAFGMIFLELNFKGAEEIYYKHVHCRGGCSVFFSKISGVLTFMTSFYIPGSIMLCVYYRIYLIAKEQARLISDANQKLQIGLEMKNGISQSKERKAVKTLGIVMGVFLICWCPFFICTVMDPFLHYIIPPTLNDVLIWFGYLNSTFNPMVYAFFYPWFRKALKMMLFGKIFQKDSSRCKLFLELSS

`CN1CC2c3ccccc3Oc3ccc(Cl)cc3C2C1` (centres unmarked) [asenapine] was tested, and the EC50 (hTA1 b2N; read-out: EC50) was 72.8 nM, the Emax (hTA1 b2N; [1]) was 97.39 ± 0.96% and the “Normalized Luminescence Counts” value (hTA1 C178S; Asenapine, M -5) was 75.4368 and 92.2127 and 77.6331 and 138.575 and 114.073 and 74.6126. For the same molecule, the “Normalized Luminescence Counts” value (hTA1 C178S; Asenapine, M -5.522) was 79.5957 and 78.8948 and 73.2872 and 121.163 and 122.988 and 72.6381, the “Normalized Luminescence Counts” value (hTA1 C178S; Asenapine, M -6) was 71.3246 and 64.9226 and 70.9975 and 119.907 and 121.163 and 96.5417 and the “Normalized Luminescence Counts” value (hTA1 C178S; Asenapine, M -6.522) was 41.1373 and 42.2588 and 39.3616 and 54.3289 and 32.5494 and 43.2597. For the same molecule, the “ΔpEC50 values (each mutant value - WT average), Mean” value (hTA1 C178S; C178S, Asenapine) was -0.5777 and -0.5455, the “Emax values, Mean” value (hTA1 C178S; C178S, Asenapine, per experiment, 3 replicates) was 87.2953 and 116.77 and the EC50 (hTA1 C178S; C178S, Asenapine, per experiment, 3 replicates, read-out: pEC50 values Mean (converted)) was 327 nM and 304 nM. For the same molecule, the EC50 (hTA1 C178S; C178S, n=2, read-out: EC50) was 315 nM, the Emax (hTA1 C178S; C178S, n=2, read-out: Span ± SEM (Emax normalized to β-PEA)) was 102% and the Emax (hTA1 C178S; C178S, relative to β-PEA, read-out: Emax) was 102%. The EC50 (hTA1 C88/178S; C88/178S, n=2, read-out: EC50) was 205 nM, the Emax (hTA1 C88/178S; [1]) was 86.3 ± 8.4% and the “ΔpEC50 values (each mutant value - WT average), Mean” value (hTA1 W264F; Asenapine) was -2.045 and -2.029. The “Emax values, Mean” value (hTA1 W264F; Asenapine, per experiment, 3 replicates) was 34.2126 and 58.204, the EC50 (hTA1 W264F; Asenapine, per experiment, 3 replicates, read-out: pEC50 values Mean (converted)) was 9610 nM and 9250 nM and the EC50 (hTA1 W264F; n=2, read-out: EC50) was 9430 nM. For the same molecule, the Emax (hTA1 W264F; n=2, read-out: Span ± SEM (Emax normalized to β-PEA)) was 46.2 ± 12%, the EC50 (hTA1 T194A; EC50, T194A) was 540 nM and the “Emax values of Asenapine” value (hTA1 T194A; T194A, Mean of one experiment) was 80.8072. The “ΔEmax values (each mutant value - WT average), T194A, Mean” value (hTA1 T194A; hTA1 T194A mutant vs WT average, Figure 6B, each line is one experiment (3 replicates)) was 2.977 and -7.9001, the EC50 (hTA1 T194A; pEC50 values of Asenapine, T194A, Mean of one experiment) was 383 nM and 477 nM and the EC50 (hTA1 T194A; pEC50 ± SEM, T194A) was 457 nM. For the same molecule, the Emax (hTA1 T194A; read-out: Emax values of Asenapine, T194A, Mean of one experiment) was 91.7% and the Emax (hTA1 T194A; read-out: Span ± SEM (Emax normalized to β-PEA), T194A) was 120%.
